Reference: ChEMBL document CHEMBL2057073, “Synthesis and structure-activity relationship studies of 1,3-disubstituted 2-propanols as BACE-1 inhibitors” (Bioorg Med Chem Lett, 2012)

Experiments:
[1] = target: T1, Beta-secretase 1 (Homo sapiens, UniProt P56817); test: Inhibition of BACE1 at 100 uM by FRET assay
[2] = target: T1, Beta-secretase 1; test: Inhibition of BACE1 at 25 uM by FRET assay
[3] = target: T1, Beta-secretase 1; test: Inhibition of BACE1 at 50 uM by FRET assay

T1 sequence (P56817 whole entry): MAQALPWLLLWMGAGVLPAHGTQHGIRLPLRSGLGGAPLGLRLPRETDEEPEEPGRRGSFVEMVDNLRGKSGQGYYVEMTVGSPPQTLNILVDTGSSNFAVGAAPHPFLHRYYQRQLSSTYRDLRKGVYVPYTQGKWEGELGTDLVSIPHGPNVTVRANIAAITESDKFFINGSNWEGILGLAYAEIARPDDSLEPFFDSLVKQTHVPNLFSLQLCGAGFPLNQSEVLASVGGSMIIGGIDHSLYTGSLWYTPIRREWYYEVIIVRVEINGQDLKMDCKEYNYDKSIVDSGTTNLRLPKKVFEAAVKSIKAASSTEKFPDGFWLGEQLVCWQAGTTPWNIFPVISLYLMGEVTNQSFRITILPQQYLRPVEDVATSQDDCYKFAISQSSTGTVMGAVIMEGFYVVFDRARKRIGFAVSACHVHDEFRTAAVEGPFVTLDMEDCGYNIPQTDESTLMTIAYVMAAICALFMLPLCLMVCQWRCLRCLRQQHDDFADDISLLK

Row | Compound | inhibition [1] | inhibition [2] | inhibition [3]
1 | OC(CSc1ccccc1)CN(Cc1ccccc1)Cc1ccccc1 (stereo unspecified) | 0% |  | 
2 | COc1ccc(SCC(O)COc2ccc(Cc3ccccc3)cc2)cc1 (stereo unspecified) | 48% |  | 
3 | Cc1cc(C)cc(SCC(O)CN(Cc2ccccc2)Cc2ccccc2)c1 (stereo unspecified) | 38% |  | 
4 | COc1cc2c(cc1OC)C(c1ccccc1)N(CC(O)CSc1ccccc1F)CC2 (stereo unspecified) | 23% |  | 
5 | Cc1c(C)n(CC(O)CSc2ccccc2O)c2ccccc12 (stereo unspecified) | 61% |  | 
6 | CCc1cccc2ccn(CC(O)CSc3ccc(OC)cc3OC)c12 (stereo unspecified) | 69% |  | 
7 | OC(COc1ccc(Cc2ccccc2)cc1)CSc1ccc(Cl)cc1 (stereo unspecified) | 63% |  | 
8 | OC(CSc1nnnn1-c1ccccc1)CN(Cc1ccccc1)Cc1ccccc1 (stereo unspecified) | 0% |  | 
9 | CCc1ccc(SCC(O)Cn2ccc3ccccc32)cc1 (stereo unspecified) | 72% |  | 
10 | CCc1ccc(SCC(O)Cn2ccc3cccc(CC)c32)cc1 (stereo unspecified) | 92% | 38% | 61%
11 | OC(CSc1ccc(F)cc1)CN(Cc1ccccc1)Cc1ccccc1 (stereo unspecified) | 2% |  | 
12 | CCc1ccccc1SCC(O)CN1CCc2cc(OC)c(OC)cc2C1c1ccccc1 (stereo unspecified) | 1% |  | 
13 | CCc1ccc(SCC(O)CN2CCC(C(O)(c3ccccc3)c3ccccc3)CC2)cc1 (stereo unspecified) | 1% |  | 
14 | COc1cc2c(cc1OC)C(c1ccccc1)N(CC(O)CSc1ccc(F)cc1)CC2 (stereo unspecified) | 15% |  | 
15 | Cc1cc(C)cc(SCC(O)CN2CCCCCC2)c1 (stereo unspecified) | 15% |  | 
16 | COc1ccc(SCC(O)CN2CCC(C(O)(c3ccccc3)c3ccccc3)CC2)cc1 (stereo unspecified) | 0% |  | 
17 | CCc1cccc2ccn(CC(O)CSc3ccc(F)cc3)c12 (stereo unspecified) | 86% | 48% | 41%
18 | COc1ccc(SCC(O)Cn2c3c(c4ccccc42)CCC3)cc1 (stereo unspecified) | 85% | 27% | 74%
19 | Cc1ccccc1SCC(O)COc1ccc(-c2ccccc2)cc1 (stereo unspecified) | 74% |  | 
20 | Oc1ccc(SCC(O)CN2CCC(C(O)(c3ccccc3)c3ccccc3)CC2)cc1 (stereo unspecified) | 0% |  | 
21 | COc1ccc(SCC(O)Cn2c(C)c(C)c3ccccc32)c(OC)c1 (stereo unspecified) | 83% | 0% | 37%
22 | Cc1c(C)n(CC(O)CSc2nnnn2-c2ccccc2)c2ccccc12 (stereo unspecified) | 93% | 31% | 64%
23 | CCc1cccc2ccn(CC(O)CSCCCc3ccccc3)c12 (stereo unspecified) | 0% |  | 
24 | OC(CSc1ccc(F)cc1)CN1CCCCCC1 (stereo unspecified) | 10% |  | 
25 | CCc1cccc2ccn(CC(O)CSc3ccccc3O)c12 (stereo unspecified) | 32% |  | 
26 | OC(CSc1nnnn1-c1ccccc1)Cn1c(-c2ccccc2)cc2ccccc21 (stereo unspecified) | 53% |  | 

Row | Compound | inhibition [1] | inhibition [2] | inhibition [3]
27 | CCc1ccc(SCC(O)COc2ccc(Cc3ccccc3)cc2)cc1 (stereo unspecified) | 69% |  | 
28 | OC(COc1ccc(Cc2ccccc2)cc1)CSc1ccccc1F (stereo unspecified) | 64% |  | 
29 | CCc1ccccc1SCC(O)COc1ccc(Cc2ccccc2)cc1 (stereo unspecified) | 71% |  | 
30 | OC(CSc1nnnn1-c1ccccc1)Cn1c2c(c3ccccc31)CCC2 (stereo unspecified) | 87% | 37% | 76%
31 | OC(CSc1ccccc1F)CN1CCC(C(O)(c2ccccc2)c2ccccc2)CC1 (stereo unspecified) | 8% |  | 
32 | Cc1c(C)n(CC(O)CSc2ccc3ccccc3c2)c2ccccc12 (stereo unspecified) | 87% |  | 
33 | COc1ccc(SCC(O)Cn2c3ccccc3c3ccccc32)c(OC)c1 (stereo unspecified) | 80% | 22% | 69%
34 | COc1ccc(SCC(O)CN2CCc3cc(OC)c(OC)cc3C2c2ccccc2)cc1 (stereo unspecified) | 20% |  | 
35 | OC(CSc1ccccc1Cl)CN1CCC(C(O)(c2ccccc2)c2ccccc2)CC1 (stereo unspecified) | 5% |  | 
36 | COc1ccc(SCC(O)CN2CCC(C(O)(c3ccccc3)c3ccccc3)CC2)c(OC)c1 (stereo unspecified) | 0% |  | 
37 | OC(CSc1ccc(F)cc1)Cn1c2c(c3ccccc31)CCCC2 (stereo unspecified) | 87% | 56% | 92%
38 | Cc1c(C)n(CC(O)CSc2ccccc2)c2ccccc12 (stereo unspecified) | 69% |  | 
39 | OC(CSc1ccc2ccccc2c1)Cn1c2c(c3ccccc31)CCC2 (stereo unspecified) | 87% | 43% | 80%
40 | COc1ccc(SCC(O)CN(Cc2ccccc2)Cc2ccccc2)cc1 (stereo unspecified) | 10% |  | 
41 | COc1ccc(SCC(O)Cn2c3c(c4ccccc42)CCC3)c(OC)c1 (stereo unspecified) | 75% |  | 
42 | COc1ccc(SCC(O)Cn2c(-c3ccccc3)cc3ccccc32)cc1 (stereo unspecified) | 70% |  | 
43 | OC(CSc1ccc(Cl)cc1)CN(Cc1ccccc1)Cc1ccccc1 (stereo unspecified) | 24% |  | 
44 | COc1ccc(SCC(O)CN(Cc2ccccc2)Cc2ccccc2)c(OC)c1 (stereo unspecified) | 34% |  | 
45 | Cc1c(C)n(CC(O)CSc2ccccc2F)c2ccccc12 (stereo unspecified) | 56% |  | 
46 | Oc1ccccc1SCC(O)COc1ccc(-c2ccccc2)cc1 (stereo unspecified) | 33% |  | 
47 | Cc1c(C)n(CC(O)CSc2ccc(O)cc2)c2ccccc12 (stereo unspecified) | 75% |  | 
48 | OC(CSc1ccc(Cl)cc1)Cn1c(-c2ccccc2)cc2ccccc21 (stereo unspecified) | 82% | 56% | 69%
49 | CCc1cccc2ccn(CC(O)CSc3ccc(OC)cc3)c12 (stereo unspecified) | 83% | 11% | 54%
50 | OC(CSc1ccccc1F)CN(Cc1ccccc1)Cc1ccccc1 (stereo unspecified) | 1% |  | 
51 | Oc1ccccc1SCC(O)CN1CCC(C(O)(c2ccccc2)c2ccccc2)CC1 (stereo unspecified) | 3% |  | 
52 | OC(CSc1nnnn1-c1ccccc1)Cn1c2ccccc2c2ccccc21 (stereo unspecified) | 64% |  | 

Row | Compound | inhibition [1] | inhibition [2] | inhibition [3]
53 | OC(CSc1ccccc1)Cn1c2ccccc2c2ccccc21 (stereo unspecified) | 86% | 79% | 85%
54 | OC(CSc1ccccc1)Cn1c2c(c3ccccc31)CCC2 (stereo unspecified) | 85% | 35% | 64%
55 | COc1ccc(SCC(O)Cn2c3c(c4ccccc42)CCCC3)c(OC)c1 (stereo unspecified) | 74% |  | 
56 | Cc1ccc(SCC(O)Cn2c(-c3ccccc3)cc3ccccc32)cc1 (stereo unspecified) | 76% | 45% | 65%
57 | OC(CSc1ccccc1)CN1CCC(C(O)(c2ccccc2)c2ccccc2)CC1 (stereo unspecified) | 2% |  | 
58 | OC(CSc1ccccc1Cl)CN(Cc1ccccc1)Cc1ccccc1 (stereo unspecified) | 45% |  | 
59 | COc1ccc(SCC(O)Cn2c(C)c(C)c3ccccc32)cc1 (stereo unspecified) | 96% | 26% | 70%
60 | Oc1ccccc1SCC(O)CN(Cc1ccccc1)Cc1ccccc1 (stereo unspecified) | 2% |  | 
61 | CCc1cccc2ccn(CC(O)CSc3cc(C)cc(C)c3)c12 (stereo unspecified) | 90% | 40% | 71%
62 | OC(CSc1ccc2ccccc2c1)CN(Cc1ccccc1)Cc1ccccc1 (stereo unspecified) | 19% |  | 
63 | CCc1cccc2ccn(CC(O)CSc3nnnn3-c3ccccc3)c12 (stereo unspecified) | 86% |  | 46%
64 | Cc1ccccc1SCC(O)CN1CCC(C(O)(c2ccccc2)c2ccccc2)CC1 (stereo unspecified) | 5% |  | 
65 | COc1cc2c(cc1OC)C(c1ccccc1)N(CC(O)CSc1ccc(Cl)cc1)CC2 (stereo unspecified) | 3% |  | 
66 | OC(CSCCCc1ccccc1)CN(Cc1ccccc1)Cc1ccccc1 (stereo unspecified) | 16% |  | 
67 | COc1ccc(SCC(O)Cn2c3ccccc3c3ccccc32)cc1 (stereo unspecified) | 88% | 37% | 72%
68 | OC(COc1ccc(-c2ccccc2)cc1)CSc1nnnn1-c1ccccc1 (stereo unspecified) | 71% |  | 
69 | COc1ccc(SCC(O)Cn2ccc3ccccc32)c(OC)c1 (stereo unspecified) | 84% | 43% | 76%
70 | COc1ccc(SCC(O)CN2CCc3cc(OC)c(OC)cc3C2c2ccccc2)c(OC)c1 (stereo unspecified) | 24% |  | 
71 | OC(CSc1ccc(F)cc1)Cn1ccc2ccccc21 (stereo unspecified) | 54% |  | 
72 | OC(CSc1ccc(Cl)cc1)CN1CCCCCC1 (stereo unspecified) | 0% |  | 
73 | CCc1ccccc1SCC(O)CN(Cc1ccccc1)Cc1ccccc1 (stereo unspecified) | 54% |  | 
74 | Oc1ccc(SCC(O)COc2ccc(-c3ccccc3)cc2)cc1 (stereo unspecified) | 17% |  | 
75 | COc1ccc(SCC(O)COc2ccc(-c3ccccc3)cc2)cc1 (stereo unspecified) | 45% |  | 
76 | COc1ccc(SCC(O)Cn2c(-c3ccccc3)cc3ccccc32)c(OC)c1 (stereo unspecified) | 77% | 21% | 42%
77 | OC(COc1ccc(Cc2ccccc2)cc1)CSc1nnnn1-c1ccccc1 (stereo unspecified) | 62% |  | 
78 | OC(CSc1ccccc1)CN1CCCCCC1 (stereo unspecified) | 2% |  | 

Row | Compound | inhibition [1] | inhibition [2] | inhibition [3]
79 | COc1cc2c(cc1OC)C(c1ccccc1)N(CC(O)CSc1ccccc1C)CC2 (stereo unspecified) | 24% |  | 
80 | COc1ccc(SCC(O)COc2ccc(Cc3ccccc3)cc2)c(OC)c1 (stereo unspecified) | 67% |  | 
81 | COc1cc2c(cc1OC)C(c1ccccc1)N(CC(O)CSc1ccc(C)cc1)CC2 (stereo unspecified) | 11% |  | 
82 | OC(CSc1ccc2ccccc2c1)CN1CCC(C(O)(c2ccccc2)c2ccccc2)CC1 (stereo unspecified) | 0% |  | 
83 | Cc1ccc(SCC(O)CN2CCC(C(O)(c3ccccc3)c3ccccc3)CC2)cc1 (stereo unspecified) | 1% |  | 
84 | Oc1ccccc1SCC(O)Cn1ccc2ccccc21 (stereo unspecified) | 24% |  | 
85 | CCc1ccc(SCC(O)CN2CCc3cc(OC)c(OC)cc3C2c2ccccc2)cc1 (stereo unspecified) | 21% |  | 
86 | OC(CSc1ccc(Cl)cc1)CN1CCC(C(O)(c2ccccc2)c2ccccc2)CC1 (stereo unspecified) | 10% |  | 
87 | Cc1cc(C)cc(SCC(O)COc2ccc(Cc3ccccc3)cc2)c1 (stereo unspecified) | 71% |  | 
88 | Nc1cccc(SCC(O)Cn2c(-c3ccccc3)cc3ccccc32)c1 (stereo unspecified) | 73% |  | 
89 | COc1ccc(SCC(O)COc2ccc(-c3ccccc3)cc2)c(OC)c1 (stereo unspecified) | 74% |  | 
90 | OC(CSc1nnnn1-c1ccccc1)Cn1ccc2ccccc21 (stereo unspecified) | 58% |  | 
91 | Cc1c(C)n(CC(O)CSc2cccc(N)c2)c2ccccc12 (stereo unspecified) | 55% |  | 
92 | COc1cc2c(cc1OC)C(c1ccccc1)N(CC(O)CSc1cc(C)cc(C)c1)CC2 (stereo unspecified) | 15% |  | 
93 | Cc1cc(C)cc(SCC(O)CN2CCC(C(O)(c3ccccc3)c3ccccc3)CC2)c1 (stereo unspecified) | 0% |  | 
94 | OC(CSc1nnnn1-c1ccccc1)CN1CCCCCC1 (stereo unspecified) | 0% |  | 
95 | Cc1ccccc1SCC(O)Cn1c(-c2ccccc2)cc2ccccc21 (stereo unspecified) | 67% |  | 
96 | CCc1ccccc1SCC(O)CN1CCC(C(O)(c2ccccc2)c2ccccc2)CC1 (stereo unspecified) | 3% |  | 
97 | OC(COc1ccc(Cc2ccccc2)cc1)CSc1ccc(F)cc1 (stereo unspecified) | 62% |  | 
98 | OC(CSc1ccc2ccccc2c1)CN1CCCCCC1 (stereo unspecified) | 0% |  | 
99 | COc1cc2c(cc1OC)C(c1ccccc1)N(CC(O)CSc1nnnn1-c1ccccc1)CC2 (stereo unspecified) | 45% |  | 
100 | Cc1ccc(SCC(O)CN(Cc2ccccc2)Cc2ccccc2)cc1 (stereo unspecified) | 7% |  | 
101 | OC(CSc1nnnn1-c1ccccc1)CN1CCC(C(O)(c2ccccc2)c2ccccc2)CC1 (stereo unspecified) | 1% |  | 
102 | Cc1ccc(SCC(O)COc2ccc(-c3ccccc3)cc2)cc1 (stereo unspecified) | 27% |  | 
